IC50 and EC50 data for ten compounds are collected here from ChEMBL document CHEMBL1201862, “PubChem BioAssay data set” (2004).

Assay [1] concerns the target Heat shock protein HSP 90-alpha (Homo sapiens, UniProt P07900). Kind of assay: Luminescence-based dose response biochemical high throughput screening assay for inhibitors of the Heat Shock Protein 90 (HSP90). [Related pubchem assays: 1831 (Summary AID.), 1846 (Confirmation screen.), 1789 (Primary screen.)].
Assay [2] is described as follows: Luminescence Cell-Based Dose Response to Identify Activators of 5'UTR Stem-Loop Driven Prion Protein mRNA Translation in H4-C Neuroglioblastoma Cells. [Related pubchem assays: 1829 (Project Summary), 1814 (Primary HTS)]. Format: functional.
Assay [3] in a line: Luminescence Cell-Based Dose Response HTS to Identify Activators of Luciferase Translation or Activity in H4 […] Cells. [Related pubchem assays: 1829 (Project Summary), 1814 (Primary HTS)]. Format: functional.
The nature of assay [4]: Luminescence Cell-Based Dose Response to Identify Activators of Luciferase Translation or Activity in H4-C Neuroglioblastoma Cells. [Related pubchem assays: 1829 (Project Summary), 1814 (Primary HTS)]. Format: functional.
The nature of assay [5]: Luminescence Cell-Based Dose Confirmation to Identify Activators of 5'UTR Stem-Loop Driven Alpha-Synuclein mRNA Translation in H4 Neuroglioblastoma Cells. [Related pubchem assays: 1829 (Project Summary), 1814 (Primary HTS)]. Format: functional.
In assay [6] the target is Peroxisome proliferator-activated receptor gamma/Nuclear receptor corepressor 2 (Homo sapiens, UniProt P37231+Q9Y618). Kind of assay: Counterscreen for NR2E3 inverse agonists: TR-FRET-based biochemical high throughput dose response assay to identify inverse agonists of the interaction between peroxisome proliferator-activated receptor gamma (PPARg) and nuclear receptor co-repressor 2 (NCOR2). Format: functional. On the technique in general: Counterscreens check selectivity or assay interference.

Assay [7] addresses Photoreceptor-specific nuclear receptor (Homo sapiens, UniProt Q9Y5X4). Kind of assay: NR2E3 inverse agonists, dose response, biochemical, TR-FRET (AID 463256). In kind it is functional.
The next assay deals with NADPH oxidase 1 (Homo sapiens, UniProt Q9Y5S8). In kind it is functional, cell-based.
Assay [8] is described as follows: growth suppression of PTEN-null colon cells, dose response, cell-based, HCT116 PTEN knockout (AID 1047).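 Further: HCT116 colon tumor cells with PTEN knocked out; cells exposed to compound for 60 hours before readout; potency for loss of cell viability measured by luminescence.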 Format: functional.
In assay [9] the target is Protein-tyrosine kinase 2-beta (Homo sapiens, UniProt Q14289).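 Further: potency of inhibitors of PYK2 kinase phosphorylation of poly-GT substrate.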
Assay [10] in a line: growth suppression of beta-catenin-knockout colon cells, dose response, cell-based, HCT116, human colon tumor (AID 1045).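 Further: HCT116 colon tumor cells with beta catenin knocked out; cells exposed to compound for 60 hours.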 In kind it is functional.
Assay [11] addresses Epstein-Barr nuclear antigen 1 (Epstein-Barr virus (strain B95-8) (HHV-4) (Human herpesvirus 4), UniProt P03211). Kind of assay: EBNA-1 inhibitors, dose response, biochemical, fluorescence polarization, 1536-well (AID 2381).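 Further: fluorescence polarization of a Cy5 DNA probe bound by EBNA-1 protein.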 The arrangement: species or system human gammaherpesvirus 4. On the technique in general: Fluorescence polarisation rises when a labelled molecule tumbles more slowly, as on binding a larger partner.

For assay [12], the target named is Lytic switch protein BZLF1 (Epstein-Barr virus (strain B95-8) (HHV-4) (Human herpesvirus 4), UniProt P03206). The experiment in a line: EBV ZTA inhibitors, dose response, counter-screen for EBNA-1 inhibitor project, biochemical, fluorescence polarization, Epstein-Barr virus, 1536-well (AID 2377).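 Further: fluorescence polarization of Cy5-labelled ZRE DNA probe bound by purified Zta.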 The arrangement: species or system human gammaherpesvirus 4.
Assay [13] can be described thus: inhibitors of intracellular T. cruzi replication, confirmation, NIH3T3 host cells, beta-gal luminescence (AID 2044).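 Further: intracellular parasites grown in NIH/3T3 mouse fibroblasts as host cells; luminescent beta-galactosidase reporter signal from transgenic T. cruzi replicating inside host cells; inhibitors lower the luminescence signal.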 Format: functional, cell-based.
A short description of assay [14]: cytotoxicity toward NIH3T3 fibroblasts, dose response, counter-screen, cell-based, ATP luminescence, mouse fibroblasts (AID 2010).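 Further: cells exposed to compound for about 90 hours before reading.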 Format: functional.
Assay [15] can be described thus: Luminescence Cell-Based Dose Confirmation HTS to Identify Activators of 5'UTR Stem-Loop Driven Alpha-Synuclein mRNA Translation in H4 Neuroglioblastoma Cells. [Related pubchem assays: 1829 (Project Summary), 1814 (Primary HTS)]. In kind it is functional.
The next assay deals with H4. The experiment in a line: Luminescence Cell-Based Dose Response HTS to Identify Activators of 5'UTR Stem-Loop Driven Prion Protein mRNA Translation in H4 Neuroglioblastoma Cells. [Related pubchem assays: 1829 (Project Summary), 1814 (Primary HTS)]. In kind it is functional. As to conditions: Homo sapiens.

Calls of active or inactive are those of the source.

Chain of NADPH oxidase 1 (Q9Y5S8 whole entry): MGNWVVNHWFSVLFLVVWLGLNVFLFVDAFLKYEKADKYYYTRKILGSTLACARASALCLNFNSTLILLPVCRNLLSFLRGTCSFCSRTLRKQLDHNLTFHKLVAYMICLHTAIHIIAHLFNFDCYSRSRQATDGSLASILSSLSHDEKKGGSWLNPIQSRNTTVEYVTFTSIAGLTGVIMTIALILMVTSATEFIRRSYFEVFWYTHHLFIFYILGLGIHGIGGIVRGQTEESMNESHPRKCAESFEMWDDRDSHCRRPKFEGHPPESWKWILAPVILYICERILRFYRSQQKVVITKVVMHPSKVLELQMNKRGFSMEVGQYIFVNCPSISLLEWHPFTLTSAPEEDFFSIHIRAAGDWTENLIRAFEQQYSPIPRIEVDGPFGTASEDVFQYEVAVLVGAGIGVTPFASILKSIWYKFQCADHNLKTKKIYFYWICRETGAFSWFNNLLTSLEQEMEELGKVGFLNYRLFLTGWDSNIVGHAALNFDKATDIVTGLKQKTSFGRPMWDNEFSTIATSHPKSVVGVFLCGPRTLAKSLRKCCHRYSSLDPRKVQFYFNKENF
Chain of Photoreceptor-specific nuclear receptor (Q9Y5X4 whole entry): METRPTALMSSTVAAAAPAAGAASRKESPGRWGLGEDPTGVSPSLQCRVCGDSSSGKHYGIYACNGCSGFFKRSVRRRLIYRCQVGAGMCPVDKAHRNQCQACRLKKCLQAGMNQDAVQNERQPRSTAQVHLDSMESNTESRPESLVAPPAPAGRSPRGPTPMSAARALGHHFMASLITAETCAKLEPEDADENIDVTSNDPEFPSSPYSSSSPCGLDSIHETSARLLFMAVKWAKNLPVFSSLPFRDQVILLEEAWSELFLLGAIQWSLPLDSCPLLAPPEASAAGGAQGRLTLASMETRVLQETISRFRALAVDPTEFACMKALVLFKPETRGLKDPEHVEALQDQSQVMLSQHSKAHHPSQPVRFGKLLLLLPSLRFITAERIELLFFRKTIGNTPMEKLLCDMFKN
Chain of Peroxisome proliferator-activated receptor gamma/Nuclear receptor corepressor 2 (P37231 whole entry): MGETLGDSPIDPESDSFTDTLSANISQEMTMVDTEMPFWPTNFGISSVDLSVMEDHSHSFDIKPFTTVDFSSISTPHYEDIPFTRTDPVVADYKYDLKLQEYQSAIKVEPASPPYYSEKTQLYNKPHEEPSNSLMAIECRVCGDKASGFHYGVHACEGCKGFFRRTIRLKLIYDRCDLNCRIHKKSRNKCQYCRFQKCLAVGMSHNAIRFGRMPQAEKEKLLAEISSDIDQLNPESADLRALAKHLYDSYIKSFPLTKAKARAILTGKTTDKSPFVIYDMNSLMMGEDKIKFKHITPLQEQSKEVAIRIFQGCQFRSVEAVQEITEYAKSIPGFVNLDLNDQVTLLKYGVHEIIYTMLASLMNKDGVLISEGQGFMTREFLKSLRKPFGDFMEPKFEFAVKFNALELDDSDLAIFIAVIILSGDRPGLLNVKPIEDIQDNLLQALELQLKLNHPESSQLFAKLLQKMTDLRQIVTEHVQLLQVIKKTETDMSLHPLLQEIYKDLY
Chain of Peroxisome proliferator-activated receptor gamma/Nuclear receptor corepressor 2 (Q9Y618 whole entry): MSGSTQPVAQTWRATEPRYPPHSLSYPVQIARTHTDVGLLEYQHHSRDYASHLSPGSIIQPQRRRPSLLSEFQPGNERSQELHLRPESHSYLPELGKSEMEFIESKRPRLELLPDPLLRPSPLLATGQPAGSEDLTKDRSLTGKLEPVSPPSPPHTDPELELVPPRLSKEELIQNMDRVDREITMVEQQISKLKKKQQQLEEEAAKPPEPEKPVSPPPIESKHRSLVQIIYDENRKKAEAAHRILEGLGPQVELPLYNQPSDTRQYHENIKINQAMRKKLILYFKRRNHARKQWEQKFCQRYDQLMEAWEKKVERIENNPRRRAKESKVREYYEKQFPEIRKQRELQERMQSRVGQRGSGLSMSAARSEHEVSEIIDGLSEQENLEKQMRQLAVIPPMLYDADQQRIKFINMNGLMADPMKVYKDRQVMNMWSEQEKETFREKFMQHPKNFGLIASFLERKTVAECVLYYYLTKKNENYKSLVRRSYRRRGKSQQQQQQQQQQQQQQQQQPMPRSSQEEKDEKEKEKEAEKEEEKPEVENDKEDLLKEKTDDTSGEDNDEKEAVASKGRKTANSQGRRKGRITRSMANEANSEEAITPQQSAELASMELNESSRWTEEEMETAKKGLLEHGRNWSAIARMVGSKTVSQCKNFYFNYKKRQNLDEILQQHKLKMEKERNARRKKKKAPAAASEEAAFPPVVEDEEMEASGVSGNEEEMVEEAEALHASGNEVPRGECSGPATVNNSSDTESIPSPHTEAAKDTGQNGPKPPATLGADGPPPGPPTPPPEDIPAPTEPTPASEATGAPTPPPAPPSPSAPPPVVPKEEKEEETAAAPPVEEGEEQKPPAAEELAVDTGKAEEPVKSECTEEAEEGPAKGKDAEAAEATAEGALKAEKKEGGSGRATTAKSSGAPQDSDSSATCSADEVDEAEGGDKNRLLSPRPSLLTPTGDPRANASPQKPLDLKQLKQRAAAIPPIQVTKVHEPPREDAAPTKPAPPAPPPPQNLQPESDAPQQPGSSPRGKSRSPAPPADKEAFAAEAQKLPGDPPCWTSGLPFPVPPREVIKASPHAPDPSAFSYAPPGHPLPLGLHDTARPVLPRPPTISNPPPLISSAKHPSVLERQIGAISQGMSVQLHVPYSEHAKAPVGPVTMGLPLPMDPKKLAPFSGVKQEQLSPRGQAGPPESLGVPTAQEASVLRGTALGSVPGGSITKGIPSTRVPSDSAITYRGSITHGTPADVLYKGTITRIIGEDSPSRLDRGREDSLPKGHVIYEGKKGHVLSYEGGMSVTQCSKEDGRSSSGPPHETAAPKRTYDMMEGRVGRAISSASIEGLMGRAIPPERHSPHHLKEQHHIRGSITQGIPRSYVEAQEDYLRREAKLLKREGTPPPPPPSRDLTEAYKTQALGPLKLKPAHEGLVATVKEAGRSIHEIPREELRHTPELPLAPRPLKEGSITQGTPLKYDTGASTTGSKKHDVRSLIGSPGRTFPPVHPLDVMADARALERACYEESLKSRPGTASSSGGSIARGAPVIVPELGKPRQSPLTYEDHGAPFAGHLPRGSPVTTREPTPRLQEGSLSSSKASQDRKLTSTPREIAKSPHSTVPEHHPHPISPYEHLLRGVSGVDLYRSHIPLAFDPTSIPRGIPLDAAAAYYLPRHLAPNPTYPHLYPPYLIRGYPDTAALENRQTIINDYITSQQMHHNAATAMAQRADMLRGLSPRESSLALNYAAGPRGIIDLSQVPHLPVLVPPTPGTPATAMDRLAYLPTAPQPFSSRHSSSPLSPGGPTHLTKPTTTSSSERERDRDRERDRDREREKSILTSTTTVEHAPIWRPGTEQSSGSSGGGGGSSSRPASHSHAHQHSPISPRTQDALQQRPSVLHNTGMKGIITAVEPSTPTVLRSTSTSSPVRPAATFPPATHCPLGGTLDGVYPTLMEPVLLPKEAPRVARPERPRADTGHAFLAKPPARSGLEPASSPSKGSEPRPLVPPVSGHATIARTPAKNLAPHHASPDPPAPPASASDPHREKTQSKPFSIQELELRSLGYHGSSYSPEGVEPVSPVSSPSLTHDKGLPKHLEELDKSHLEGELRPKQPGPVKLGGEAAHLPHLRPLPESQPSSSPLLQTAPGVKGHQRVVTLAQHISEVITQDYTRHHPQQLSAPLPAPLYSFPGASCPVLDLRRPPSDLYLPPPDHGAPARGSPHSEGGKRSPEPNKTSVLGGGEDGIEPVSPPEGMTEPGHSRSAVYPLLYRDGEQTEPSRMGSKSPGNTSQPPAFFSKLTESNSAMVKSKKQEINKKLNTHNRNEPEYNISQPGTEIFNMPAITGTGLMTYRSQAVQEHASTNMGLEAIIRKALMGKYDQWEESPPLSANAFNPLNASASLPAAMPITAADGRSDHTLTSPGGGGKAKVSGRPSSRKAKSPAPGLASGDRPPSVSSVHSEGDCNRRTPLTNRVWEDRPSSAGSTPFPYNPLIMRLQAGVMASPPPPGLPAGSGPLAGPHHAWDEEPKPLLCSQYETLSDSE
Chain of Lytic switch protein BZLF1 (P03206 whole entry): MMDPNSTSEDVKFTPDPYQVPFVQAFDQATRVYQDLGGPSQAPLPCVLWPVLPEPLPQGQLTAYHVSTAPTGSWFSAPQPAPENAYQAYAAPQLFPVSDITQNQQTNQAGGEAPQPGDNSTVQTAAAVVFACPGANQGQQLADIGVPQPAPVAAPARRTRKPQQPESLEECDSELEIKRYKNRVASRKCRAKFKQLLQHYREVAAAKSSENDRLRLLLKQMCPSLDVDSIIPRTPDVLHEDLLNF
Chain of Epstein-Barr nuclear antigen 1 (P03211 whole entry): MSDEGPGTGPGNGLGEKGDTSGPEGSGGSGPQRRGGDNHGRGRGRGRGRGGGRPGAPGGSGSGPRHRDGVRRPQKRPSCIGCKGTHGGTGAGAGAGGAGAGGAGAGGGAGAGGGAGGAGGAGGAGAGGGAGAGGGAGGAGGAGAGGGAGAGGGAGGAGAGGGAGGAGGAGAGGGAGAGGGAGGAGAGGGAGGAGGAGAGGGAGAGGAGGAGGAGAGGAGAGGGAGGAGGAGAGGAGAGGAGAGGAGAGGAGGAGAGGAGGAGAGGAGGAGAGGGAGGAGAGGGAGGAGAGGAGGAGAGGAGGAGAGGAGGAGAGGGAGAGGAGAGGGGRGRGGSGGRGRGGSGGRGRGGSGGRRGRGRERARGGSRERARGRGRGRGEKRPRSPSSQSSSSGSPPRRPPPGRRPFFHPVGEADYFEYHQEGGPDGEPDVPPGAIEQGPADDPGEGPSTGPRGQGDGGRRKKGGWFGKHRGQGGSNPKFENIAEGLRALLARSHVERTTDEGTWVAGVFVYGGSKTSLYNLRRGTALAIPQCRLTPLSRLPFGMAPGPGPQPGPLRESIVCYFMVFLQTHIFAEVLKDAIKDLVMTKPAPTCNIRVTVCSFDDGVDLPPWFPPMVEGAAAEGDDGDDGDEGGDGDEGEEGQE

With `C=CCOC(=O)c1sc(NC(=O)c2ccc(OC)cc2)nc1C`, in assay [1], the IC50 was 3.58 µM (active).
For the compound `Cc1ccc(C(=O)Nc2ccc(C(F)(F)F)n(C)c2=O)cc1`, the EC50 in assay [2] is 0.317 µM (active); in assay [3], < 0.1 µM (inconclusive); in assay [4], 0.305 µM (active); in [5] it was 0.311 µM (active).
Take `Cc1ccc2c(Cl)c(C(=O)Nc3cc(C)on3)sc2c1`: the IC50 in assay [6] is given as 14.1 µM (not active); in [7], 12.7 µM (not active).
With `COc1ccc(-c2nc(-c3ccc(O)cc3)[nH]c2-c2ccc(OC)cc2)cc1`, at NADPH oxidase 1, the IC50 is 9.01 µM (active).
For `CN1CCc2c(sc3ncn4nc(-c5ccccc5O)nc4c23)C1`, the concentration giving a half-maximal response (EC50) is 13.4 µM (active) in [8] and 10.4 µM (active) in assay [10]. Further, the IC50 in [9] is on record as 17.9 µM (not active).
Regarding `CCOC(=O)N1CCc2c(sc(NC(=O)C3COc4ccccc4O3)c2C(N)=O)C1` (stereo unspecified), the figures for the IC50 in [11] and in assay [12] were 15.3 µM (not active) and > 111 µM (not active), respectively.
In the case of `COc1cccc(OC(=O)c2sc3ccccc3c2Cl)c1`, the IC50 at NADPH oxidase 1 is > 17 µM (not active).
Take `O=C(Nc1cccc(-c2nc3cccnc3s2)c1)c1ccc(Cl)nc1`: the IC50 was 1.8 µM (active) in assay [6] and 3.37 µM (active) in assay [7].
On to `CC(=O)Nc1ccc(NC(=O)Cc2sc(-c3cccnc3)nc2-c2ccc(C)cc2)cc1`, for which the IC50 in assay [11] was > 5.47 µM (active); in assay [12], > 111 µM (not active). The EC50 in [13] is 1.28 µM (active); in assay [14], > 60 µM (not active).
Consider `O=C1c2ccccc2S(=O)(=O)N1CC1CC(c2ccc(Cl)cc2)=NO1` (stereo unspecified), for which the EC50 in assay [2] is 0.805 µM (active); in assay [15], < 0.1 µM (active); in assay [3] it was < 0.1 µM (active); with H4, 9.96 µM (active); in [4] it was 0.407 µM (active); in assay [5], 0.435 µM (active).

As a reminder, the IC50 is the concentration that inhibits the measured activity by half. The term EC50 denotes the concentration giving half of the maximal effect.
